# Data taken from patent US20210395295A1, “INHIBITORS OF GLUCOCORTICOID RECEPTOR” (ORIC Pharmaceuticals, Inc., priority 2015, published 2021).
# Tests used:
# GR = target: T1, GR (Homo sapiens, UniProt P04150); assay: In vitro GR luciferase reporter assay (antagonist mode); type: cell-based; settings: CHO-K1-GR-MMTV-Luc reporter cells, 10 nM dexamethasone, 18-24 hours
# T1 construct: expressed in transfected cells; host or cells: CHO-K1 (Chinese hamster ovary) reporter cells carrying GR and MMTV-Luc
# T1 sequence (P04150 1-777): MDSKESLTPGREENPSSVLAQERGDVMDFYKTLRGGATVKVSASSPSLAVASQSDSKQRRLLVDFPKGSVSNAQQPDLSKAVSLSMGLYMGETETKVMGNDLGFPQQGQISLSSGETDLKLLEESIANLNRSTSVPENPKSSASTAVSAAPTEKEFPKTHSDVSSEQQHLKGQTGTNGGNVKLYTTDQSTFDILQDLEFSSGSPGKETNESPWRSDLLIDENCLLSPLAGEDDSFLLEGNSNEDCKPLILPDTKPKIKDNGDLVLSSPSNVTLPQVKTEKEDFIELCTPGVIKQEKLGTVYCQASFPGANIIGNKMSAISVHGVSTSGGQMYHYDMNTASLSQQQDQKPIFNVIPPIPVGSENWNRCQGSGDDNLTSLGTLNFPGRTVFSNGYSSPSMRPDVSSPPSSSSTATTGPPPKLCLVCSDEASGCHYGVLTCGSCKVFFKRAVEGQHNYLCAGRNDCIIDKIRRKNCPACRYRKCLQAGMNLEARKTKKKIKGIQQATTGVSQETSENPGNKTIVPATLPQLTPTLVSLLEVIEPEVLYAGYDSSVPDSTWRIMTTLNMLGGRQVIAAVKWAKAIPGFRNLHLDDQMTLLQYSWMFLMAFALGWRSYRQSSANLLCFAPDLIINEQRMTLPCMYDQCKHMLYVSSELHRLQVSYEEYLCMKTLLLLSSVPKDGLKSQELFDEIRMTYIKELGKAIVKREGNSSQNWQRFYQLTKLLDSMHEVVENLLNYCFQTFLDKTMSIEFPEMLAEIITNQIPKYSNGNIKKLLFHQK
# Text: Example 4: In Vitro GR Luciferase Reporter Assay
# • Cell Line: CIH-K1-GR-MMTV-Luc reporter cells • Culture Media: DMEM (with phenol red) +10% FBS • Assay Media: DMEM (without phenol red) +10% CSS
# Culture CHO-K1-GR-MMTV-Luc reporter cells in 15 cm plates in Culture Media at conditions less than 90% confluence.
# Prepare 200× DMSO 1:5 serial dilutions of control and test compounds in 96-well non-sterile V bottom plate in DMSO, 8 serial dilutions for each compound.
# Prepare 5× Assay Media diluted compound serial dilutions in 96-well non-sterile V bottom plate: Add 97.5 uL/well of Assay Media into 96-well then add 2.5 ul of 200× concentration of compounds and mix well.
# Seed cells for Antagonist Assay: 1.5×10^6 CHO-K1-GR-MMTV-Luc reporter cells were seeded in a Corning 3707 flat clear bottom 384-well white TC plate in 20 ul of Assay Media containing 12.5 nM Dexamethasone (final concentration=10nM). […]
# Read plates: Equilibrate appropriate amount of Promega OneGlo luciferase reagent to room temperature. Remove the plates from incubator and add 25 uL of OneGlo reagent/well by multiple channel pipette and read the plates with Tecan F500 luminometer within 3 minutes.
# The ability of the compounds disclosed herein to inhibit GR activity was quantified and the respective IC50 value was determined. […]
# AR = assay: In vitro AR agonism assay in LNAR reporter cell line; type: cell-based; settings: for Relative Maximum Response to Mifepristone: LNAR cells (overexpressed AR, 4xARE-Luc), RPMI + 10% CSS, Mifepristone maximum response set to 1
# Procedure: Example 5: In Vitro AR Agonisin Assay
# The AR agonism assay was done in the LNAR reporter cell line which has overexpressed AR and 4×ARE-Luc genes. This cell line is sensitive to even minor partial AR agonism activity in hormone-deprived media (CSS). The assays were done in RPMI (without phenol red) +10% CSS using 6000 LNAR cells/well in 384-well plates and compounds were incubated with cells in […] incubator for 8-24 hrs. OneGlo reagent (25 uL/well) was added and plates were read with luminometer within 3 minutes.
# To gauge the AR partial agonism activity, Mifepristone is included as a standard in the assay. AR agonism assay results are quantified by determining the ratio of the maximum response of individual compounds to the maximum response of Mifepristone (arbitrarily set to 1). Values of Table 4 are reported as Relative Maximum Response to Mifepristone. This general trend of AR agonism was shown for the class of compounds described herein.
SMILES,IC50 (GR) [nM],Relative Maximum Response to Mifepristone (AR),further results
Cc1ccc([C@H]2C[C@@]3(C)[C@@H](CC[C@@]3(O)C#CC(C)(F)F)[C@@H]3CCC4=CC(=O)CCC4=C32)cc1F,> 100,,
"CC#C[C@]1(O)CC[C@H]2[C@@H]3CCC4=CC(=O)CCC4=C3[C@@H](c3ccc(N(C)C)cc3)C[C@@]21C [Mifepristone, reference compound]",,,"concentration showing strong partial AR agonism (AR; LNAR reporter cells, hormone-deprived media (CSS)): ≥ 10 nM"
[2H]C([2H])([2H])C#C[C@]1(O)[C@H](C)C[C@H]2[C@@H]3CCC4=CC(=O)CCC4=C3[C@@H](c3cc(F)c(C)c(F)c3)C[C@@]21C,≤ 100,,
CC(C)C#C[C@]1(O)CC[C@H]2[C@@H]3CCC4=CC(=O)CCC4=C3[C@@H](c3ccc(N(C)C)c(F)c3)C[C@@]21C,,A (A: ≤0.4),
CN(C)c1ccc([C@H]2C[C@@]3(C)[C@@H](CC[C@@]3(O)C#CC(C)(C)C)[C@@H]3CCC4=CC(=O)CCC4=C32)cc1,,A (A: ≤0.4),
